Experimental data published in patent US8952024B2, “Herbicidal pyrimidone derivatives” (E I du Pont de Nemours and Company, priority 2009, dated 2015).

How the values were obtained:
[1] = system: quackgrass (Elytrigia repens); test: Test D pre-/postemergence plant response; format: in vivo
How it was run: (§1)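 Under greenhouse conditions for 14 to 21 days, plants treated pre- or postemergence with surfactant-formulated compound were compared by eye with untreated controls and scored 0–100 (100 = complete control; dash = no result).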

[2] = system: green foxtail (Setaria viridis); test: Test D pre-/postemergence plant response; format: in vivo
How it was run: as §1

[3] = system: groundsel (common groundsel, Senecio vulgaris); test: Test D pre-/postemergence plant response; format: in vivo; conditions: Postemergence
How it was run: as §1

[4] = system: Italian ryegrass (Lolium multiflorum); test: Test D pre-/postemergence plant response; format: in vivo
How it was run: as §1

[5] = system: prickly sida (Sida spinosa); test: Test D pre-/postemergence plant response; format: in vivo
How it was run: as §1

[6] = system: bermudagrass (Cynodon dactylon); test: Test D pre-/postemergence plant response; format: in vivo
How it was run: as §1

[7] = system: naked crabgrass (Digitaria nuda); test: Test D pre-/postemergence plant response; format: in vivo
How it was run: as §1

[8] = system: field bindweed (Convolvulus arvensis); test: Test D pre-/postemergence plant response; format: in vivo
How it was run: as §1

[9] = system: mallow (common mallow, Malva sylvestris); test: Test D pre-/postemergence plant response; format: in vivo
How it was run: as §1

[10] = system: dayflower (Virginia (VA) dayflower, Commelina virginica); test: Test D pre-/postemergence plant response; format: in vivo
How it was run: as §1

[11] = system: johnsongrass (Sorghum halepense); test: Test D pre-/postemergence plant response; format: in vivo
How it was run: as §1

[12] = system: bluegrass (annual bluegrass, Poa annua); test: Test D pre-/postemergence plant response; format: in vivo
How it was run: as §1

[13] = system: sandbur (southern sandbur, Cenchrus echinatus); test: Test D pre-/postemergence plant response; format: in vivo
How it was run: as §1

[14] = system: goosegrass (Eleusine indica); test: Test D pre-/postemergence plant response; format: in vivo
How it was run: as §1

[15] = system: ragweed (common ragweed, Ambrosia elatior); test: Test D pre-/postemergence plant response; format: in vivo
How it was run: as §1

[16] = Postemergence, 16 g ai/ha, scale 0 to 100
[17] = Postemergence, 31 g ai/ha, scale 0 to 100
[18] = Postemergence, 125 g ai/ha, scale 0 to 100 (0 no effect, 100 complete control)
[19] = Postemergence, 62 g ai/ha, scale 0 to 100 (0 no effect, 100 complete control)
[20] = Preemergence, 16 g ai/ha, scale 0 to 100, 0 no effect, 100 complete control
[21] = Preemergence, 31 g ai/ha, scale 0 to 100 (0 no effect, 100 complete control)
[22] = Preemergence, 125 g ai/ha, scale 0 to 100
[23] = Preemergence, 62 g ai/ha, scale 0 to 100
[24] = Postemergence, 31 g ai/ha, scale 0 to 100 (0 no effect, 100 complete control)

O=C1CCCC(O)=C1C(=O)c1cnc(C2CC2)n(-c2ccccc2)c1=O [Compound 87]
10: Plant response rating, Foxtail, Green [2, 22] | Plant response rating, Dayflower, VA [10, 16]
100: Plant response rating, Groundsel ([3]; 125 g ai/ha, scale 0 to 100 (0 no effect, 100 complete control)) | Plant response rating, Groundsel ([3]; 62 g ai/ha, scale 0 to 100 (0 no effect, 100 complete control)) | Plant response rating, Prickly Sida [5, 23] | Plant response rating, Prickly Sida [5, 22] | Plant response rating, Crabgrass, Naked [7, 23] | Plant response rating, Crabgrass, Naked [7, 22] | Plant response rating, Mallow [9, 22] | Plant response rating, Goosegrass [14, 22]
65: Plant response rating, Bermudagrass [6, 16] | Plant response rating, Bermudagrass [6, 24] | Plant response rating, Bermudagrass [6, 20] | Plant response rating, Bermudagrass [6, 21] | Plant response rating, Dayflower, VA [10, 23] | Plant response rating, Dayflower, VA [10, 22] | Plant response rating, Goosegrass [14, 18] | Plant response rating, Goosegrass [14, 19]
80: Plant response rating, Prickly Sida [5, 17] | Plant response rating, Prickly Sida [5, 19] | Plant response rating, Crabgrass, Naked [7, 21] | Plant response rating, Mallow [9, 23] | Plant response rating, Ragweed [15, 17]
95: Plant response rating, Prickly Sida [5, 18] | Plant response rating, Sandbur [13, 22] | Plant response rating, Goosegrass [14, 23] | Plant response rating, Ragweed [15, 19]
70: Plant response rating, Prickly Sida [5, 16] | Plant response rating, Bermudagrass [6, 19] | Plant response rating, Crabgrass, Naked [7, 19] | Plant response rating, Field Bindweed [8, 22] | Plant response rating, Mallow [9, 18] | Plant response rating, Mallow [9, 19] | Plant response rating, Dayflower, VA [10, 18] | Plant response rating, Johnsongrass [11, 22] | Plant response rating, Ragweed [15, 16]
0: Plant response rating, Quackgrass [1, 16] | Plant response rating, Quackgrass [1, 17] | Plant response rating, Quackgrass [1, 19] | Plant response rating, Quackgrass [1, 20] | Plant response rating, Quackgrass [1, 21] | Plant response rating, Quackgrass [1, 22] | Plant response rating, Foxtail, Green [2, 20] | Plant response rating, Foxtail, Green [2, 21] | Plant response rating, Foxtail, Green [2, 23] | Plant response rating, Ryegrass, Italian [4, 16] | Plant response rating, Ryegrass, Italian [4, 17] | Plant response rating, Ryegrass, Italian [4, 19] | Plant response rating, Ryegrass, Italian [4, 20] | Plant response rating, Ryegrass, Italian [4, 21] | Plant response rating, Field Bindweed [8, 16] | Plant response rating, Field Bindweed [8, 20] | Plant response rating, Field Bindweed [8, 21] | Plant response rating, Dayflower, VA [10, 20] | Plant response rating, Dayflower, VA [10, 21] | Plant response rating, Johnsongrass [11, 20] | Plant response rating, Bluegrass [12, 16] | Plant response rating, Bluegrass [12, 24] | Plant response rating, Bluegrass [12, 18] | Plant response rating, Bluegrass [12, 19] | Plant response rating, Sandbur [13, 20]
60: Plant response rating, Foxtail, Green [2, 18] | Plant response rating, Prickly Sida [5, 21] | Plant response rating, Crabgrass, Naked [7, 17] | Plant response rating, Mallow [9, 17] | Plant response rating, Dayflower, VA [10, 19] | Plant response rating, Johnsongrass [11, 18]
30: Plant response rating, Foxtail, Green [2, 17] | Plant response rating, Ryegrass, Italian [4, 22] | Plant response rating, Johnsongrass [11, 17] | Plant response rating, Goosegrass [14, 16] | Plant response rating, Ragweed [15, 20]
20: Plant response rating, Johnsongrass [11, 16] | Plant response rating, Johnsongrass [11, 23] | Plant response rating, Bluegrass [12, 20] | Plant response rating, Bluegrass [12, 21] | Plant response rating, Sandbur [13, 19]
15: Plant response rating, Field Bindweed [8, 17]
40: Plant response rating, Field Bindweed [8, 18] | Plant response rating, Field Bindweed [8, 23] | Plant response rating, Mallow [9, 16] | Plant response rating, Johnsongrass [11, 19]
85: Plant response rating, Bermudagrass [6, 18]
98: Plant response rating, Groundsel ([3]; 16 g ai/ha, scale 0 to 100) | Plant response rating, Groundsel ([3]; 31 g ai/ha, scale 0 to 100) | Plant response rating, Bermudagrass [6, 23] | Plant response rating, Bermudagrass [6, 22] | Plant response rating, Ragweed [15, 18] | Plant response rating, Ragweed [15, 21] | Plant response rating, Ragweed [15, 22]
75: Plant response rating, Crabgrass, Naked [7, 18]
50: Plant response rating, Prickly Sida [5, 20] | Plant response rating, Crabgrass, Naked [7, 16]
5: Plant response rating, Quackgrass [1, 18] | Plant response rating, Foxtail, Green [2, 16] | Plant response rating, Ryegrass, Italian [4, 18] | Plant response rating, Johnsongrass [11, 21] | Plant response rating, Sandbur [13, 16] | Plant response rating, Sandbur [13, 17]
35: Plant response rating, Foxtail, Green [2, 19] | Plant response rating, Dayflower, VA [10, 17] | Plant response rating, Bluegrass [12, 22] | Plant response rating, Sandbur [13, 18] | Plant response rating, Goosegrass [14, 17] | Plant response rating, Goosegrass [14, 20] | Plant response rating, Goosegrass [14, 21]
25: Plant response rating, Field Bindweed [8, 19] | Plant response rating, Bluegrass [12, 23] | Plant response rating, Sandbur [13, 21]

COCCCn1c(-c2ccccc2)ncc(C(=O)C2=C(O)CCCC2=O)c1=O [Compound 81, 5-[(2-hydroxy-6-oxo-cyclohexen-1-yl)carbonyl]-3-(3-methoxypropyl)-2-phenyl-4(3H)-pyrimidinone]
121 to 122 °C: melting point
